This test addresses Nav 1.7 (Homo sapiens (Human), UniProt Q15858). The experiment in a line: in-vitro Nav 1.7 PX (IC50). It counts as cell-based.
The mark [1] stands for this setting: in-vitro Nav 1.7 PX data (PatchXpress).

SMILES strings stand for the structures. Where two headings read alike, the source gives them in different places.

Nav 1.7, sequence (Q15858 whole entry): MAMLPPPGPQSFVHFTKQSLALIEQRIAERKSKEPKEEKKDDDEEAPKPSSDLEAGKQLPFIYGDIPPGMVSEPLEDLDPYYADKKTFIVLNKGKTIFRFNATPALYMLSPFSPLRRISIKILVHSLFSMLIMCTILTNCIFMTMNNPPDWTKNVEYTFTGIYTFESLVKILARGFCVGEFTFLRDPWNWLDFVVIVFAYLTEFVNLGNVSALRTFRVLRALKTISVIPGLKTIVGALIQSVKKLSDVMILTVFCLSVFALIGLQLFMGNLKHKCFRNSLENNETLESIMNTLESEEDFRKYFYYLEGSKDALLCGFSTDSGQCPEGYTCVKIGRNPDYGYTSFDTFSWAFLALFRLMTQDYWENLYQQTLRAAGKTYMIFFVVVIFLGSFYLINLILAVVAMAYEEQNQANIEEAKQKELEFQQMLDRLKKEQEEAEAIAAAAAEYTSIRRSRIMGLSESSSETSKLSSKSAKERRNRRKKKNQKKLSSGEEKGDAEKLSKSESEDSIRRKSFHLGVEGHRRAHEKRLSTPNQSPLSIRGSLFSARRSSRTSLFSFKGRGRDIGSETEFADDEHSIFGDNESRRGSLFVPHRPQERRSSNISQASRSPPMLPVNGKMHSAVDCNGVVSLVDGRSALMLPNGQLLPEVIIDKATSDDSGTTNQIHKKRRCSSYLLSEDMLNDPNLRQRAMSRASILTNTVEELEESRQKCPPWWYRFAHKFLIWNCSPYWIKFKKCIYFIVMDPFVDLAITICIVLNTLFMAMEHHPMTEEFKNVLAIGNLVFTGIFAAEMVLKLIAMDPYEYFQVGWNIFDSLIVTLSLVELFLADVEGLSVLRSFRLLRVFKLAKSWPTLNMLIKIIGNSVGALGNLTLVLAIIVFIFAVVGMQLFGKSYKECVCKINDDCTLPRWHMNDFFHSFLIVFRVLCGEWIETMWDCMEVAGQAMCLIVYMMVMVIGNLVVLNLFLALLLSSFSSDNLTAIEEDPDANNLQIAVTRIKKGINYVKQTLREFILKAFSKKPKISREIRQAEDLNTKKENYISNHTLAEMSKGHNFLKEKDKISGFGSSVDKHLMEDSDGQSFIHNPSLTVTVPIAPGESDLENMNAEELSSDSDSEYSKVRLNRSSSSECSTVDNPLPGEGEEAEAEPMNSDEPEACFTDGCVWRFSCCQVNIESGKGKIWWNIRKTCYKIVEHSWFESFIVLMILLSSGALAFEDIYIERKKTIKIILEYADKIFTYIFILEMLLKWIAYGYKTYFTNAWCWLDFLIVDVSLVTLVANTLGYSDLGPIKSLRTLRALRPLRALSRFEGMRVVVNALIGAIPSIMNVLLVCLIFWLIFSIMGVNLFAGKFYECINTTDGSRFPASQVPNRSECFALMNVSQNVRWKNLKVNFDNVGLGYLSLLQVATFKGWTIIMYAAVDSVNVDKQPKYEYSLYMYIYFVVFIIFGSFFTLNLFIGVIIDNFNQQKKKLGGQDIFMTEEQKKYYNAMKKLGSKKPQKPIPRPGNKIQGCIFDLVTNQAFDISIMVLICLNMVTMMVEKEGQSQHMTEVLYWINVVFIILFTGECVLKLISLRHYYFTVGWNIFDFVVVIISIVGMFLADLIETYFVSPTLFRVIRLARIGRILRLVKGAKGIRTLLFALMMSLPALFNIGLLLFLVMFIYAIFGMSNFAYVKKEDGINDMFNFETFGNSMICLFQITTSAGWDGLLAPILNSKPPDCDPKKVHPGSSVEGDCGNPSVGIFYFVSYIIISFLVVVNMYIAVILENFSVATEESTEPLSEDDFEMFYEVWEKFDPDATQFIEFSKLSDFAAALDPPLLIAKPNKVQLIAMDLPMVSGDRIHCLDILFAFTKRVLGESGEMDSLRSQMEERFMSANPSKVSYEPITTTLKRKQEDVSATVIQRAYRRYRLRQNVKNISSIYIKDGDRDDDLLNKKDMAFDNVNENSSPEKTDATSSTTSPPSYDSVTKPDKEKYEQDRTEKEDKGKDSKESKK

As a reminder, the IC50 is the point on the concentration scale where inhibition reaches its midpoint. A low value points to greater potency in that assay. Compound `COc1cc(-c2cccc(C(F)(F)F)c2)ccc1-n1c(=O)ccc2cc(S(=O)(=O)Nc3ccncn3)ccc21` (atropisomer, axis not shown; (P)) [Example 671, (P)-1-(3-methoxy-3′-(trifluoromethyl)-4-biphenylyl)-2-oxo-N-4-pyrimidinyl-1,2-dihydro-6-quinolinesulfonamide] had an IC50 (in-vitro Nav 1.7 PX data) of 0.011 µM.

Compound `CC(C#N)Oc1cc(-c2cc(F)cc(F)c2)c(F)cc1-n1c(=O)ccc2cc(S(=O)(=O)Nc3ccon3)ccc21` (stereo not drawn) [Example 681, 1-(5-(1-cyanoethoxy)-2,3′,5′-trifluoro-[1,1′-biphenyl]-4-yl)-N-(isoxazol-3-yl)-2-oxo-1,2-dihydroquinoline-6-sulfonamide] gave a concentration for half-maximal inhibition (IC50) (in-vitro Nav 1.7 PX data) of 0.458 µM.

Compound `COc1cc(F)cc(-c2ccc(OC)c(-n3c(=O)ccc4cc(S(=O)(=O)Nc5ccon5)ccc43)c2)c1` [Example 838, 1-(3′-fluoro-4,5′-dimethoxy-3-biphenylyl)-N-3-isoxazolyl-2-oxo-1,2-dihydro-6-quinolinesulfonamide] had an IC50 (in-vitro Nav 1.7 PX data) of 0.069 µM. In turn, `COc1cc(-c2ccc(-n3c(=O)ccc4cc(S(=O)(=O)Nc5cccnn5)ccc43)c(OC)c2)ccc1Cl` [Example 1038, 1-(4′-chloro-3,3′-dimethoxy-4-biphenylyl)-2-oxo-N-3-pyridazinyl-1,2-dihydro-6-quinolinesulfonamide] returned an IC50 under setting [1] of 0.058 µM.

For the setting “in-vitro Nav 1.7 PX data”, `COc1nc(-c2cc(F)cc(F)c2)c(Cl)cc1-n1c(=O)ccc2cc(S(=O)(=O)Nc3ncccn3)ccc21` [Example 1080, 1-(5-chloro-6-(3,5-difluorophenyl)-2-methoxy-3-pyridinyl)-2-oxo-N-2-pyrimidinyl-1,2-dihydro-6-quinolinesulfonamide] gave an IC50 of 0.021 µM.

The compound `COc1ccc(F)c(-c2ccc(-n3c(=O)ccc4cc(S(=O)(=O)Nc5ccon5)ccc43)c(OC)c2)c1` [Example 1033, 1-(2′-fluoro-3,5′-dimethoxy-4-biphenylyl)-N-3-isoxazolyl-2-oxo-1,2-dihydro-6-quinolinesulfonamide] showed a half-inhibitory concentration (IC50) under setting [1] of 0.064 µM. The compound `COc1cncc(-c2cc(OC)c(-n3c(=O)ccc4cc(S(=O)(=O)Nc5ccon5)ccc43)cc2F)c1` [Example 738, 1-(5-fluoro-2-methoxy-4-(5-methoxy-3-pyridinyl)phenyl)-N-3-isoxazolyl-2-oxo-1,2-dihydro-6-quinolinesulfonamide] returned a half-maximal inhibitory concentration (IC50) (in-vitro Nav 1.7 PX data) of 1.23 µM.

For the setting “in-vitro Nav 1.7 PX data”, `COc1cc(-c2ccc(F)c(C)c2)c(F)cc1-n1c(=O)ccc2cc(S(=O)(=O)Nc3nnc(C)s3)ccc21` [Example 948, 1-(2,4′-difluoro-5-methoxy-3′-methyl-4-biphenylyl)-N-(5-methyl-1,3,4-thiadiazol-2-yl)-2-oxo-1,2-dihydro-6-quinolinesulfonamide] returned an IC50 of 0.1 µM. `COc1cc(-c2ccc(Cl)c(F)c2)ccc1-n1c(=O)ccc2cc(S(=O)(=O)Nc3ccon3)ccc21` (atropisomer, axis not shown; (M)) [Example 579, (M)-1-(4′-chloro-3′-fluoro-3-methoxy-4-biphenylyl)-N-3-isoxazolyl-2-oxo-1,2-dihydro-6-quinolinesulfonamide]: the concentration for half-maximal inhibition (IC50) worked out at 4.31 µM. As to `COc1ccc(F)c(-c2cc(OC)c(-n3c(=O)ccc4cc(S(=O)(=O)Nc5ccon5)ccc43)cc2F)c1` [Example 732, 1-(2,2′-difluoro-5,5′-dimethoxy-4-biphenylyl)-N-3-isoxazolyl-2-oxo-1,2-dihydro-6-quinolinesulfonamide], under “in-vitro Nav 1.7 PX data”, inhibition was half-maximal at 0.056 µM (IC50).

For the compound `COc1cc(-c2cccc(Cl)c2)cc(F)c1-n1c(=O)ccc2cc(S(=O)(=O)Nc3ccon3)ccc21` (atropisomer, axis not shown; (P)) [Example 320, (P)-1-(3′-chloro-3-fluoro-5-methoxy-4-biphenylyl)-N-3-isoxazolyl-2-oxo-1,2-dihydro-6-quinolinesulfonamide], the IC50 was 0.141 µM.

In turn, `COc1cc(CC2CCCCC2)c(F)cc1-n1c(=O)ccc2cc(S(=O)(=O)Nc3ccncn3)ccc21` [Example 1115, 1-(4-(cyclohexylmethyl)-5-fluoro-2-methoxyphenyl)-2-oxo-N-4-pyrimidinyl-1,2-dihydro-6-quinolinesulfonamide] showed a 50% inhibitory concentration (IC50) (in-vitro Nav 1.7 PX data) of 0.081 µM. The compound `COc1cc(-c2cccc(F)c2)c(C)cc1-n1c(=O)ccc2cc(S(=O)(=O)Nc3ccon3)ccc21` (atropisomer, axis not shown; (M)) [Example 428, (M)-1-(3′-fluoro-5-methoxy-2-methyl-4-biphenylyl)-N-3-isoxazolyl-2-oxo-1,2-dihydro-6-quinolinesulfonamide] registered a half-inhibitory concentration (IC50) of 7.59 µM. In other words, the single-digit micromolar range. Compound `COc1cc(-c2cccc(OC)c2Cl)ccc1-n1c(=O)ccc2cc(S(=O)(=O)Nc3ccon3)ccc21` [Example 782, 1-(2′-chloro-3,3′-dimethoxy-4-biphenylyl)-N-3-isoxazolyl-2-oxo-1,2-dihydro-6-quinolinesulfonamide] had an IC50 (in-vitro Nav 1.7 PX data) of 0.087 µM. Still for that read-out and setting: the same measure for `COc1cc(-c2cc(OC)c(-n3c(=O)ccc4cc(S(=O)(=O)Nc5ncco5)ccc43)cc2F)ccc1F` [Example 1011, 1-(2,4′-difluoro-3′,5-dimethoxy-4-biphenylyl)-N-1,3-oxazol-2-yl-2-oxo-1,2-dihydro-6-quinolinesulfonamide]: 0.207 µM; for `COc1cc(Cl)cc(-c2cc(OC)c(-n3c(=O)ccc4cc(S(=O)(=O)Nc5cccnn5)ccc43)cc2F)c1` [Example 930, 1-(3′-chloro-2-fluoro-5,5′-dimethoxy-4-biphenylyl)-2-oxo-N-3-pyridazinyl-1,2-dihydro-6-quinolinesulfonamide]: 0.014 µM; for `COc1cc(-c2ccc(F)c(F)c2)ccc1-n1c(=O)ccc2cc(S(=O)(=O)Nc3ccnc(C)n3)ccc21` [Example 900, 1-(3′,4′-difluoro-3-methoxy-4-biphenylyl)-N-(2-methyl-4-pyrimidinyl)-2-oxo-1,2-dihydro-6-quinolinesulfonamide]: 0.285 µM. Still for that read-out and setting: for `COc1cccc(-c2ccc(OC)c(-n3c(=O)ccc4cc(S(=O)(=O)Nc5ccon5)ccc43)c2)c1` [Example 847, 1-(3′,4-dimethoxy-3-biphenylyl)-N-3-isoxazolyl-2-oxo-1,2-dihydro-6-quinolinesulfonamide] the value was 0.403 µM. `COc1cc(-c2cnc(OC)c(Cl)c2)c(F)cc1-n1c(=O)ccc2cc(S(=O)(=O)Nc3ncc(F)cn3)ccc21` (atropisomer, axis not shown; (P)) [Example 1156, (P)-1-(4-(5-chloro-6-methoxy-3-pyridinyl)-5-fluoro-2-methoxyphenyl)-N-(5-fluoro-2-pyrimidinyl)-2-oxo-1,2-dihydro-6-quinolinesulfonamide] gave a 50% inhibitory concentration (IC50) of 0.042 µM. The compound `COc1cc(-c2cccc(C3CC3)c2)ccc1-n1c(=O)ccc2cc(S(=O)(=O)Nc3ccon3)ccc21` [Example 788, 1-(3′-cyclopropyl-3-methoxy-4-biphenylyl)-N-3-isoxazolyl-2-oxo-1,2-dihydro-6-quinolinesulfonamide] yielded a half-inhibitory concentration (IC50) (in-vitro Nav 1.7 PX data) of 0.006 µM. This counts as single-digit nanomolar. The same measure, in the same setting: for `COc1ccc(-c2ccc(C(F)(F)F)cc2)cc1-n1c(=O)ccc2cc(S(=O)(=O)Nc3ccon3)ccc21` [Example 843, N-3-isoxazolyl-1-(4-methoxy-4′-(trifluoromethyl)-3-biphenylyl)-2-oxo-1,2-dihydro-6-quinolinesulfonamide] the value was 0.023 µM; for `COc1cc(-c2cc(OC)c(-n3c(=O)ccc4cc(S(=O)(=O)Nc5ccon5)ccc43)cc2F)c(Cl)cn1` [Example 759, 1-(4-(5-chloro-2-methoxy-4-pyridinyl)-5-fluoro-2-methoxyphenyl)-N-3-isoxazolyl-2-oxo-1,2-dihydro-6-quinolinesulfonamide], 0.1 µM; for `COc1cc(-c2cc(F)c(F)cc2F)ccc1-n1c(=O)ccc2cc(S(=O)(=O)Nc3ccon3)ccc21` [Example 1024, N-3-isoxazolyl-2-oxo-1-(2′,4′,5′-trifluoro-3-methoxy-4-biphenylyl)-1,2-dihydro-6-quinolinesulfonamide], 0.062 µM.

`COc1cc(-c2ccnc(OC)c2Cl)c(F)cc1-n1c(=O)ccc2cc(S(=O)(=O)Nc3ccon3)ccc21` [Example 745, 1-(4-(3-chloro-2-methoxy-4-pyridinyl)-5-fluoro-2-methoxyphenyl)-N-3-isoxazolyl-2-oxo-1,2-dihydro-6-quinolinesulfonamide]: the concentration for half-maximal inhibition (IC50) (in-vitro Nav 1.7 PX data) stood at 0.051 µM. As to `COc1cc(-c2ccc(C#N)c(Cl)c2)c(F)cc1-n1c(=O)ccc2cc(S(=O)(=O)Nc3ccon3)ccc21` (atropisomer, axis not shown; (P)) [Example 520, (P)-1-(3′-chloro-4′-cyano-2-fluoro-5-methoxy-4-biphenylyl)-N-3-isoxazolyl-2-oxo-1,2-dihydro-6-quinolinesulfonamide], where the note is “in-vitro PatchXpress (PX)”, the half-inhibitory concentration (IC50) came to 0.026 µM. This counts as double-digit nanomolar. Regarding `COc1cc(-c2cccc(OC(C)C)c2)ccc1-n1c(=O)ccc2cc(S(=O)(=O)Nc3ncco3)ccc21` [Example 826, 1-(3-methoxy-3′-(1-methylethoxy)-4-biphenylyl)-N-1,3-oxazol-2-yl-2-oxo-1,2-dihydro-6-quinolinesulfonamide], the midpoint of inhibition (in-vitro Nav 1.7 PX data), the IC50, lay at 0.14 µM. Consider `COc1cc(-c2ccc(C)c(Cl)c2)ccc1-n1c(=O)ccc2cc(S(=O)(=O)Nc3ccon3)ccc21` (atropisomer, axis not shown; (P)) [Example 587, (P)-1-(3′-chloro-3-methoxy-4′-methyl-4-biphenylyl)-N-3-isoxazolyl-2-oxo-1,2-dihydro-6-quinolinesulfonamide], for which the half-inhibitory concentration (IC50) was determined as 0.02 µM. `COc1cc(CC2CCCCC2)c(F)cc1-n1c(=O)ccc2cc(S(=O)(=O)Nc3ncco3)ccc21` [Example 1110, 1-(4-(cyclohexylmethyl)-5-fluoro-2-methoxyphenyl)-N-1,3-oxazol-2-yl-2-oxo-1,2-dihydro-6-quinolinesulfonamide]: the concentration for half-maximal inhibition (IC50) (in-vitro Nav 1.7 PX data) came to 0.052 µM. In other words, the double-digit nanomolar range. Same read-out and setting: for `COc1cc(-c2ccc(F)c(F)c2)ccc1-n1c(=O)ccc2cc(S(=O)(=O)Nc3cccnn3)ccc21` [Example 896, 1-(3′,4′-difluoro-3-methoxy-4-biphenylyl)-2-oxo-N-3-pyridazinyl-1,2-dihydro-6-quinolinesulfonamide] the value was 0.047 µM. `COc1cc(C)ccc1-c1cc(OC)c(-n2c(=O)ccc3cc(S(=O)(=O)Nc4ccon4)ccc32)cc1F` [Example 793, 1-(2-fluoro-2′,5-dimethoxy-4′-methyl-4-biphenylyl)-N-3-isoxazolyl-2-oxo-1,2-dihydro-6-quinolinesulfonamide] returned an IC50 (in-vitro Nav 1.7 PX data) of 0.048 µM. The IC50 values of the last two compounds are within 1.5-fold of each other.
